Measured values reported in ChEMBL document CHEMBL5247656, “Discovery of a Potent, Cooperative, and Selective SOS1 PROTAC ZZ151 with In Vivo Antitumor Efficacy in KRAS-Mutant Cancers” (J Med Chem, 2023).
Activity calls are given as the source filed them. No cut-off for these calls is given here.

Columns and labels:
[1] = target: T1, Son of sevenless homolog 1 (Homo sapiens) (UniProt Q07889); assay: Co-operativity factor, ratio of Kd for binding affinity to GST-tagged human SOS1 (564 to 1049 reisudes) expressed in Escherichia coli BL21 (DE3) cells assessed as binary complex formation to Kd for binding affinity to GST-tagged human SOS1 (564 to 1049 residues) expressed in Escherichia coli BL21 (DE3) cells assessed as ternary complex formation in the presence of 6His tagged human VCB
T1 sequence (whole entry): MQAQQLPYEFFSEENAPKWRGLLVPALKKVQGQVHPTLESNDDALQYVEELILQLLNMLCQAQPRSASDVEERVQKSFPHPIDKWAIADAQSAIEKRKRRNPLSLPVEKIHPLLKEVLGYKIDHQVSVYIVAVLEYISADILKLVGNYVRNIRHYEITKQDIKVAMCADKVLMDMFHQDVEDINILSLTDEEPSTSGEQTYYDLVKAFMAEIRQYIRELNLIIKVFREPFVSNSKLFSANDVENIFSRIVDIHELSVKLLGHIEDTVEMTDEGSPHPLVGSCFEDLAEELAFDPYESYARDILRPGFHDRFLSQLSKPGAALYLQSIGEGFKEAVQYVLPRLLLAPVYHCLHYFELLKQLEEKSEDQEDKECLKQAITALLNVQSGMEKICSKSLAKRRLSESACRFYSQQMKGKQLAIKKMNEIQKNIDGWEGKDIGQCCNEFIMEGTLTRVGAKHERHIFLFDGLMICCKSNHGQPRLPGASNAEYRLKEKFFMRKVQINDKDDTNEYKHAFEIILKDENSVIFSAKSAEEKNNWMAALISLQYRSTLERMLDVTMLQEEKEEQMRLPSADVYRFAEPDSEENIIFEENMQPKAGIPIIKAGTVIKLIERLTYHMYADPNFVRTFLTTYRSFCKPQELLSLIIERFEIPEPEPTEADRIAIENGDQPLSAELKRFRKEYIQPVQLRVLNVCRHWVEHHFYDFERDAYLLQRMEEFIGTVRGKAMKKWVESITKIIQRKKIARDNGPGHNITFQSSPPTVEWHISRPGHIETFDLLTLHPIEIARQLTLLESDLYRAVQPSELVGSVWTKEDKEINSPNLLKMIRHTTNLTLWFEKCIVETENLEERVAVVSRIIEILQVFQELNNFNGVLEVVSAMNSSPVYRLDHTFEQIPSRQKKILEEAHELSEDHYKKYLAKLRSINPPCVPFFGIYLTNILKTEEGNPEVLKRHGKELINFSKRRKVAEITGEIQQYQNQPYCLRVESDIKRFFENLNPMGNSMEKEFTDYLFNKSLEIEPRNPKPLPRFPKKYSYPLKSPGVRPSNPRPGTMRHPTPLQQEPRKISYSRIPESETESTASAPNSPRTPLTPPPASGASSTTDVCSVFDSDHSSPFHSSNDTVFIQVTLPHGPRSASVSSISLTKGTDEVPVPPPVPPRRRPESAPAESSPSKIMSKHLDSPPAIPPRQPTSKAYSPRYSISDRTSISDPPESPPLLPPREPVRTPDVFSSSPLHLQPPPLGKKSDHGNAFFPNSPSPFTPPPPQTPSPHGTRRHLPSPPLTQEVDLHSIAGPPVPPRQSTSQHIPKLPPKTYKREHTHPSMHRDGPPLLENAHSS

[2] = target: T2, Son of sevenless homolog 1 (Homo sapiens, UniProt Q07889); assay: (§1) Binding affinity to GST-tagged human SOS1 (564 to 1049 residues) expressed in Escherichia coli BL21 (DE3) cells assessed as binary complex formation by measuring dissociation constant incubated for 15 mins by fluorescence polarization-based displacement assay
T2 sequence (Q07889 whole entry): T1 sequence (whole entry)

[3] = target: von Hippel-Lindau disease tumor suppressor/Son of sevenless homolog 1/Elongin-B/Elongin-C (Homo sapiens) (UniProt Q07889+P40337+Q15370+Q15369); assay: Binding affinity to GST tagged human SOS1(564 to 1049 residues)-6his tagged human VHL (54 to 213 residues)-human ElonginC (17 to 112 residues)-human ElonginB (1 to 104 residues) expressed in Escherichia coli BL21 (DE3) cells assessed as ternary complex formation by measuring maximal HTRF signals incubated for 15 mins by HTRF analysis
[4] = target: T3, von Hippel-Lindau disease tumor suppressor/Son of sevenless homolog 1 (Homo sapiens) (UniProt Q07889+P40337); assay: PROTAC activity at VHL/SOS1 in human NCI-H358 cells assessed as induction of SOS1 protein degradation by measuring maximal efficacy at 2 to 2000 nM incubated for 24 hrs by Immunoblot analysis relative to control; format: cell-based; conditions: dose 2-2000 nM
[5] = target: T2, Son of sevenless homolog 1; assay: as §1, with “ternary” for “binary”, “mins in the presence of 6His tagged human VCB” for “mins”
[6] = target: T3, von Hippel-Lindau disease tumor suppressor/Son of sevenless homolog 1 (Homo sapiens); assay: PROTAC activity at VHL/SOS1 in human NCI-H358 cells assessed as induction of SOS1 protein degradation at 1.0 uM incubated for 24 hrs by Immunoblot analysis relative to control; format: cell-based
[7] = target: T3, von Hippel-Lindau disease tumor suppressor/Son of sevenless homolog 1 (Homo sapiens); assay: PROTAC activity at VHL/SOS1 in human NCI-H358 cells assessed as induction of SOS1 protein degradation at 0.1 uM incubated for 24 hrs by Immunoblot analysis relative to control; format: cell-based
LoVo = assay: Antiproliferative activity against human LoVo cells harboring KRAS G13D mutant assessed as inhibition of cell proliferation incubated for 7 days by CellTiterGlo-3D proliferation assay; format: functional, cell-based; conditions: 168 h
[8] = target: T3, von Hippel-Lindau disease tumor suppressor/Son of sevenless homolog 1 (Homo sapiens); assay: PROTAC activity at VHL/SOS1 in human NCI-H358 cells harboring KRAS G12C mutant assessed as induction of SOS1 degradation upto 10 uM incubated for 24 hrs by immunoblotting analysis; format: cell-based
NCI-H358 = assay: Antiproliferative activity against human NCI-H358 cells harboring KRAS G12C mutant assessed as inhibition of cell proliferation incubated for 7 days by CellTiterGlo-3D proliferation assay; format: functional, cell-based; conditions: NCI-H358, 168 h
PANC-1 = assay: Antiproliferative activity against human PANC-1 cells harboring KRAS G12D mutant assessed as inhibition of cell proliferation incubated for 7 days by CellTiterGlo-3D proliferation assay; format: functional, cell-based; conditions: PANC-1, 168 h
ASPC1 = assay: Antiproliferative activity against human ASPC1 cells harboring KRAS G12D mutant assessed as inhibition of cell proliferation incubated for 7 days by CellTiterGlo-3D proliferation assay; format: functional, cell-based; conditions: ASPC1, 168 h
[9] = target: T3, von Hippel-Lindau disease tumor suppressor/Son of sevenless homolog 1 (Homo sapiens); assay: PROTAC activity at VHL/SOS1 in human ASPC1 cells harboring KRAS G12D mutant assessed as induction of SOS1 degradation upto 10 uM incubated for 24 hrs by immunoblotting analysis; format: cell-based
A549 = assay: Antiproliferative activity against human A549 cells harboring KRAS G12S mutant assessed as inhibition of cell proliferation incubated for 7 days by CellTiterGlo-3D proliferation assay; format: functional, cell-based; conditions: A549, 168 h
MIA PaCa-2 = assay: Antiproliferative activity against human MIA PaCa-2 cells harboring KRAS G12C mutant assessed as inhibition of cell proliferation incubated for 7 days by CellTiterGlo-3D proliferation assay; format: functional, cell-based; conditions: MIA PaCa-2, 168 h
SW-620 = assay: Antiproliferative activity against human SW620 cells harboring KRAS G12V mutant assessed as inhibition of cell proliferation incubated for 7 days by CellTiterGlo-3D proliferation assay; format: functional, cell-based; conditions: SW-620, 168 h

Row | SMILES | Ratio [1] | Kd [2] [nM] | Activity [3] | Emax [4] [%] | Kd [5] [nM] | Activity [6] [%] | Activity [7] [%] | IC50 (LoVo) [nM] | Activity [8] | IC50 (NCI-H358) [nM] | IC50 (PANC-1) [nM] | IC50 (ASPC1) [nM] | Activity [9] | IC50 (A549) [nM] | IC50 (MIA PaCa-2) [nM] | IC50 (SW-620) [nM]
1 | COc1cc2nc(C)nc(N[C@H](C)c3cc(N)cc(C(F)(F)F)c3)c2cc1C1CCN(C(=O)CCOCCC(=O)N[C@H](C(=O)N2C[C@H](O)C[C@H]2C(=O)N[C@@H](C)c2ccc(-c3scnc3C)cc2)C(C)(C)C)CC1 | 2.8 | 95.4 | inactive | 37.6 | 33.6 | 22.9 | 0 | – | – | – | – | – | – | – | – | –
2 | COc1cc2nc(C)nc(N[C@H](C)c3cc(N)cc(C(F)(F)F)c3)c2cc1C1CCN(C(=O)CCCCCC(=O)N[C@H](C(=O)N2C[C@@H](O)C[C@H]2C(=O)N[C@@H](C)c2ccc(-c3scnc3C)cc2)C(C)(C)C)CC1 | – | – | – | – | – | – | – | > 1000 | inactive | 457 | 188 | 302 | inactive | 731 | 957 | 303

Now from value to molecule, other results behind:

Row | Ratio [1] | Kd [2] [nM] | Activity [3] | Emax [4] [%] | Kd [5] [nM] | Activity [6] [%] | Activity [7] [%] | SMILES | IC50 (LoVo) [nM] | Activity [8] | IC50 (NCI-H358) [nM] | IC50 (PANC-1) [nM] | IC50 (ASPC1) [nM] | Activity [9] | IC50 (A549) [nM] | IC50 (MIA PaCa-2) [nM] | IC50 (SW-620) [nM]
3 | 2.7 | 44.2 | inactive | 9.1 | 16.3 | 10.7 | 9.77 | COc1cc2nc(C)nc(N[C@H](C)c3cc(N)cc(C(F)(F)F)c3)c2cc1C1CCN(CCCCCCC(=O)N[C@H](C(=O)N2C[C@H](O)C[C@H]2C(=O)N[C@@H](C)c2ccc(-c3scnc3C)cc2)C(C)(C)C)CC1 | – | – | – | – | – | – | – | – | –
4 | 2.3 | 63.5 | inactive | 20.9 | 27.8 | 6.52 | 1.36 | COc1cc2nc(C)nc(N[C@H](C)c3cc(N)cc(C(F)(F)F)c3)c2cc1C1CCN(C(=O)CCCOCC(=O)N[C@H](C(=O)N2C[C@H](O)C[C@H]2C(=O)N[C@@H](C)c2ccc(-c3scnc3C)cc2)C(C)(C)C)CC1 | – | – | – | – | – | – | – | – | –
5 | 2.9 | 78.6 | inactive | 39.7 | 27.1 | 47.3 | 25.2 | COc1cc2nc(C)nc(N[C@H](C)c3cc(N)cc(C(F)(F)F)c3)c2cc1C1CCN(C(=O)CCCCCCC(=O)N[C@H](C(=O)N2C[C@H](O)C[C@H]2C(=O)N[C@@H](C)c2ccc(-c3scnc3C)cc2)C(C)(C)C)CC1 | – | – | – | – | – | – | – | – | –
